Assay results: patent US9833497B2, “Human originated EGF domain proteins and use of the same” (CHENGDU SOURCEBIO LIMITED-LIABILITY COMPANY, priority 2013, dated 2017)

What was measured:
Assay type in all cases: cell-based
Proteus vulgaris = assay: MIC against Gram-negative bacteria: Proteus vulgaris; details: 5×10^5 CFU/mL
Outline: (§1)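 Two-fold serial dilutions of each purified human EGF domain protein, three replicate wells per level, were combined with bacteria at a final 5×10^5 CFU/mL in LB. Cultures were shaken at 175 rpm, 37° C. The MIC was taken as the minimum concentration preventing growth.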

Moraxella catarrhalis = assay: MIC against Gram-negative bacteria: Moraxella catarrhalis; details: 5×10^5 CFU/mL
Outline: as §1

Enterobacter cloacae = assay: MIC against Gram-negative bacteria: Enterobacter cloacae; details: 5×10^5 CFU/mL
Outline: as §1

Klebsiella pneumonia = assay: MIC against Gram-negative bacteria: Klebsiella pneumonia; details: 5×10^5 CFU/mL
Outline: as §1

Aeromonas hydrophila = assay: MIC against Gram-negative bacteria: Aeromonas hydrophila; details: 5×10^5 CFU/mL
Outline: as §1

Serratia marcescens = assay: MIC against Gram-negative bacteria: Serratia marcescens; details: 5×10^5 CFU/mL
Outline: as §1

Citrobacter diversus = assay: MIC against Gram-negative bacteria: Citrobacter diversus; details: 5×10^5 CFU/mL
Outline: as §1

E. coli DH5α = assay: Antibacterial activity: MIC and growth curve against E. coli DH5α in 96-well plate; details: minimal inhibitory concentration against E. coli DH5α; 96-well plate, 5×10^5 CFU/mL, 37° C., judged after 8 h
Outline: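 Log-phase DH5α (OD600 about 0.5, 37° C, 185 rpm in LB) was pelleted, resuspended in fresh LB and seeded at 5×10^5 CFU/mL with recombinant protein at 50, 25 and 12.5 μg/mL (two-fold series), in triplicate. Plates were shaken at 175 rpm, 37° C, and OD600 was read every 30 min. MIC was the lowest concentration with no growth.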

Pseudomonas aeruginosa = assay: MIC against Gram-negative bacteria: Pseudomonas aeruginosa; details: 5×10^5 CFU/mL
Outline: as §1

Proteus mirabilis = assay: MIC against Gram-negative bacteria: Proteus mirabilis; details: 5×10^5 CFU/mL
Outline: as §1

E. coli BL21 = assay: MIC against Gram-negative bacteria: E. coli BL21; details: 5×10^5 CFU/mL
Outline: as §1

[1] = Proteus vulgaris, 96-well plate, 37° C., 10 h
[2] = Moraxella catarrhalis, 96-well plate, 37° C., 10 h
[3] = Enterobacter cloacae, 96-well plate, 37° C., 10 h
[4] = Klebsiella pneumonia, 96-well plate, 37° C., 10 h
[5] = Aeromonas hydrophila, 96-well plate, 37° C., 10 h
[6] = Serratia marcescens, 96-well plate, 37° C., 10 h
[7] = Citrobacter diversus, 96-well plate, 37° C., 10 h
[8] = Pseudomonas aeruginosa, 96-well plate, 37° C., 10 h
[9] = Proteus mirabilis, 96-well plate, 37° C., 10 h
[10] = E. coli BL21, 96-well plate, 37° C., 10 h
[11] = E. coli BL21, 10 h cultivation at 37° C.

PRT1333 (PIPECAALLCPENSRCSPSTEDENKLECKCLPNYRGDGKYCD; listed as Homo sapiens)
25 µg/mL: MIC against P. vulgaris (Proteus vulgaris; [1]) | MIC against M. catarrhalis (Moraxella catarrhalis; [2]) | MIC against K. pneumonia (Klebsiella pneumonia; [4]) | MIC against A. hydrophila (Aeromonas hydrophila; [5]) | MIC (E. coli DH5α) | MIC against P. aeruginosa (Pseudomonas aeruginosa; [8])
12.5 µg/mL: MIC against E. cloacae (Enterobacter cloacae; [3]) | MIC against S. marcescens (Serratia marcescens; [6]) | MIC against C. diversus (Citrobacter diversus; [7]) | MIC against P. mirabilis (Proteus mirabilis; [9]) | MIC against E. coli BL21 (E. coli BL21; [10])

PRT696 (DVDECTQSPGLCGRGACKNLPGSFRCVCPAGFRGSACE; listed as Homo sapiens)
25 µg/mL: MIC P. vulgaris (Proteus vulgaris; 96-well plate, 37° C., 10 h) | MIC M. catarrhalis (Moraxella catarrhalis; 96-well plate, 37° C., 10 h) | MIC E. cloacae (Enterobacter cloacae; 96-well plate, 37° C., 10 h) | MIC C. diversus (Citrobacter diversus; 96-well plate, 37° C., 10 h) | MIC E. coli BL21 (E. coli BL21; 96-well plate, 37° C., 10 h)
12.5 µg/mL: MIC A. hydrophila (Aeromonas hydrophila; 96-well plate, 37° C., 10 h) | MIC S. marcescens (Serratia marcescens; 96-well plate, 37° C., 10 h) | MIC P. aeruginosa (Pseudomonas aeruginosa; 96-well plate, 37° C., 10 h)
50 µg/mL: MIC K. pneumonia (Klebsiella pneumonia; 96-well plate, 37° C., 10 h) | MIC (E. coli DH5α) | MIC P. mirabilis (Proteus mirabilis; 96-well plate, 37° C., 10 h)

PRT468 (LCTPRCMNGGLCVTPGFCICPPGFYGVNCD; listed as Homo sapiens)
50 µg/mL: MIC against K. pneumonia (Klebsiella pneumonia; 96-well plate, 37° C., 10 h) | MIC against S. marcescens (Serratia marcescens; 96-well plate, 37° C., 10 h) | MIC against C. diversus (Citrobacter diversus; 96-well plate, 37° C., 10 h) | MIC against P. mirabilis (Proteus mirabilis; 96-well plate, 37° C., 10 h)
25 µg/mL: MIC against E. cloacae (Enterobacter cloacae; 96-well plate, 37° C., 10 h) | MIC (E. coli DH5α) | MIC against P. aeruginosa (Pseudomonas aeruginosa; 96-well plate, 37° C., 10 h)
12.5 µg/mL: MIC against P. vulgaris (Proteus vulgaris; 96-well plate, 37° C., 10 h) | MIC against M. catarrhalis (Moraxella catarrhalis; 96-well plate, 37° C., 10 h) | MIC against A. hydrophila (Aeromonas hydrophila; 96-well plate, 37° C., 10 h) | MIC against E. coli BL21 (E. coli BL21; 96-well plate, 37° C., 10 h)

PRT1312 (LQPVCTPPCAPEAVCRAGNSCECSLGYEGDGRVCT; listed as Homo sapiens)
12.5 µg/mL: MIC against P. vulgaris (Proteus vulgaris; [1]) | MIC against M. catarrhalis (Moraxella catarrhalis; [2]) | MIC against K. pneumonia (Klebsiella pneumonia; [4]) | MIC against A. hydrophila (Aeromonas hydrophila; [5]) | MIC against E. coli BL21 (E. coli BL21; [10])
50 µg/mL: MIC against E. cloacae (Enterobacter cloacae; [3]) | MIC against S. marcescens (Serratia marcescens; [6]) | MIC against C. diversus (Citrobacter diversus; [7]) | MIC (E. coli DH5α) | MIC against P. aeruginosa (Pseudomonas aeruginosa; [8]) | MIC against P. mirabilis (Proteus mirabilis; [9])

PRT1375 (SIRTCPSNCHGRGRCEEGRCLCDPGYTGPTC; listed as Homo sapiens)
25 µg/mL: MIC against P. vulgaris (Proteus vulgaris; Proteus vulgaris, 10 h cultivation at 37° C.) | MIC against M. catarrhalis (Moraxella catarrhalis; Moraxella catarrhalis, 10 h cultivation at 37° C.) | MIC against A. hydrophila (Aeromonas hydrophila; Aeromonas hydrophila, 10 h cultivation at 37° C.)
12.5 µg/mL: MIC against E. cloacae (Enterobacter cloacae; Enterobacter cloacae, 10 h cultivation at 37° C.) | MIC against K. pneumonia (Klebsiella pneumonia; Klebsiella pneumonia, 10 h cultivation at 37° C.) | MIC against S. marcescens (Serratia marcescens; Serratia marcescens, 10 h cultivation at 37° C.) | MIC against C. diversus (Citrobacter diversus; Citrobacter diversus, 10 h cultivation at 37° C.) | MIC (E. coli DH5α) | MIC against P. aeruginosa (Pseudomonas aeruginosa; Pseudomonas aeruginosa, 10 h cultivation at 37° C.) | MIC against E. coli BL21 (E. coli BL21; [11])
50 µg/mL: MIC against P. mirabilis (Proteus mirabilis; Proteus mirabilis, 10 h cultivation at 37° C.)

PRT249 (EAICAKPCLNGGVCVRPDQCECAPGWGGKHCH; listed as Homo sapiens)
25 µg/mL: MIC (μg/mL) E. cloacae (Enterobacter cloacae; E. cloacae, 10 h cultivation at 37° C.) | MIC (μg/mL) C. diversus (Citrobacter diversus; C. diversus, 10 h cultivation at 37° C.) | MIC (E. coli DH5α)
12.5 µg/mL: MIC (μg/mL) P. vulgaris (Proteus vulgaris; P. vulgaris, 10 h cultivation at 37° C.) | MIC (μg/mL) M. catarrhalis (Moraxella catarrhalis; M. catarrhalis, 10 h cultivation at 37° C.) | MIC (μg/mL) K. pneumonia (Klebsiella pneumonia; K. pneumonia, 10 h cultivation at 37° C.) | MIC (μg/mL) A. hydrophila (Aeromonas hydrophila; A. hydrophila, 10 h cultivation at 37° C.) | MIC (μg/mL) S. marcescens (Serratia marcescens; S. marcescens, 10 h cultivation at 37° C.) | MIC (μg/mL) P. aeruginosa (Pseudomonas aeruginosa; P. aeruginosa, 10 h cultivation at 37° C.) | MIC (μg/mL) P. mirabilis (Proteus mirabilis; P. mirabilis, 10 h cultivation at 37° C.) | MIC (μg/mL) E. coli BL21 (E. coli BL21; [11])

PRT120 (CRPCQNGGLATVEGTHCLCHCKPYTFGAACE; listed as Homo sapiens)
25 µg/mL: MIC (μg/mL) P. vulgaris (Proteus vulgaris; [1])
12.5 µg/mL: MIC (μg/mL) E. cloacae (Enterobacter cloacae; [3]) | MIC (μg/mL) K. pneumonia (Klebsiella pneumonia; [4]) | MIC (μg/mL) A. hydrophila (Aeromonas hydrophila; [5]) | MIC (μg/mL) S. marcescens (Serratia marcescens; [6]) | MIC (μg/mL) C. diversus (Citrobacter diversus; [7]) | MIC (E. coli DH5α) | MIC (μg/mL) P. aeruginosa (Pseudomonas aeruginosa; [8]) | MIC (μg/mL) P. mirabilis (Proteus mirabilis; [9]) | MIC (μg/mL) E. coli BL21 (E. coli BL21; [10])
100 µg/mL: MIC (μg/mL) M. catarrhalis (Moraxella catarrhalis; [2])
